According to PubChem BioAssay (NCI):
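Method: 48-hour compound exposure of cells in 96-well plates, five concentrations, linear interpolation of endpoints. GI50 is the concentration that inhibits growth by half. The concentration for full growth arrest is given as TGI.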

Experiments:
Assay in all cases: growth of human tumour cells (NCI), 48 h
SK-MEL-2 melanoma = system: SK-MEL-2 melanoma
OVCAR-8 ovarian = system: OVCAR-8 ovarian
SNB-19 CNS = system: SNB-19 CNS
MCF7 breast = system: MCF7 breast
NCI-H460 lung = system: NCI-H460 lung
MOLT-4 leukemia = system: MOLT-4 leukemia
CAKI-1 renal = system: CAKI-1 renal
OVCAR-5 ovarian = system: OVCAR-5 ovarian
MALME-3M melanoma = system: MALME-3M melanoma
SR leukemia = system: SR leukemia

Row | Compound | GI50 (SK-MEL-2 melanoma) [µM] | TGI (SK-MEL-2 melanoma) [µM] | GI50 (OVCAR-8 ovarian) [µM] | TGI (OVCAR-8 ovarian) [µM] | GI50 (SNB-19 CNS) [µM] | TGI (SNB-19 CNS) [µM] | GI50 (MCF7 breast) [µM] | TGI (MCF7 breast) [µM] | GI50 (NCI-H460 lung) [µM] | TGI (NCI-H460 lung) [µM] | GI50 (MOLT-4 leukemia) [µM] | TGI (MOLT-4 leukemia) [µM] | GI50 (CAKI-1 renal) [µM] | TGI (CAKI-1 renal) [µM] | GI50 (OVCAR-5 ovarian) [µM] | TGI (OVCAR-5 ovarian) [µM] | TGI (MALME-3M melanoma) [µM] | TGI (SR leukemia) [µM] | GI50 (MALME-3M melanoma) [µM] | GI50 (SR leukemia) [µM]
1 | COc1ccc(C(c2cc(OC)c(OC)c(OC)c2)n2cncn2)cc1O (configuration not stated) | 0.361 | > 100 | 1.14 | > 100 | 0.578 | > 100 | 0.347 | > 100 | 0.414 | > 100 | 0.51 | > 100 | 0.567 | > 100 | 1.99 | > 100 | – | – | – | –
2 | CN(C)C=Nc1nc(=O)n(C2CCC(CO)O2)cc1F (configuration not stated) | – | > 100 | – | > 100 | – | > 100 | – | – | – | > 100 | – | > 100 | – | > 100 | – | > 100 | > 100 | – | – | –
3 | COc1ccc2c(c1)[n+]([O-])c(C(N)=O)c(N)[n+]2[O-] | – | > 100 | – | > 100 | – | > 100 | – | – | – | > 100 | – | – | – | > 100 | – | > 100 | > 100 | > 100 | – | –
4 | CCOC(=O)C1=C(C)N(NC(=O)Nc2ccccc2)C2(N)N(NC(=O)Nc3ccccc3)C(C)=C(C(=O)OCC)C12C(=O)OCC (configuration not stated) | – | > 100 | – | > 100 | – | > 100 | – | – | – | > 100 | – | – | – | – | – | > 100 | 93.5 | > 100 | – | –
5 | C/C(CN1C(=O)c2ccccc2C1=O)=N\NS(=O)(=O)c1ccc(Cl)cc1 | – | > 100 | – | > 100 | – | > 100 | – | – | – | > 100 | – | > 100 | – | > 100 | – | > 100 | > 100 | > 100 | – | –
6 | CC#Cc1ccc(-c2ccccc2)s1 | – | > 100 | – | > 100 | – | > 100 | – | > 100 | – | > 100 | – | > 100 | – | > 100 | – | > 100 | – | > 100 | – | –
7 | COc1ccc(/C=C/COC(C)=O)cc1OC | – | > 100 | – | > 100 | – | > 100 | – | – | – | – | – | > 100 | – | > 100 | – | > 100 | > 100 | > 100 | – | –
8 | Fc1cc(-c2nnc3n2N=C(c2ccc(Cl)cc2)CS3)c(Cl)cc1Cl | 27 | > 57.8 | 15.3 | 44.3 | 19.1 | 51.1 | 4.56 | 17.9 | 18.2 | 37.4 | – | – | 4.61 | 17.4 | 15.5 | 32.7 | 10.5 | > 100 | 2.75 | 0.49
9 | Cn1cc(-c2cc3c(N4CCN(c5ncc([C@@](C)(N)c6ccc(F)cc6)cn5)CC4)ncnn3c2)cn1 | 25.4 | > 100 | 4.11 | > 100 | 9.63 | > 100 | 2.56 | > 100 | 4.41 | > 100 | 2.52 | > 100 | 2.63 | > 100 | – | – | > 100 | – | 4.16 | –
10 | O=C(/C=C/c1c(O)ccc2ccccc12)c1ccc([N+](=O)[O-])cc1 | – | > 100 | – | > 61.6 | – | > 100 | – | – | – | > 100 | – | > 90.4 | – | > 74 | – | > 100 | 49.7 | > 100 | – | –
11 | CN(C)CC1CCCC/C1=N/O (configuration not stated) | – | > 100 | – | > 100 | – | – | – | – | – | > 100 | – | > 100 | – | > 100 | – | > 100 | > 100 | – | – | –
12 | CC(=O)[O-].CC(=O)[O-].O=C(N/N=C/c1cc(Cl)cc(Cl)c1O)c1ccncc1.[Cu+2] | > 100 | > 100 | – | > 100 | – | > 100 | – | – | – | > 100 | – | > 100 | – | – | – | > 100 | > 100 | > 100 | – | –
13 | COc1c(CC(C)=O)ccc2c1C(=O)c1ccc(C=O)c(OC(C)=O)c1C2=O | – | 30.3 | – | 97.3 | – | 57.4 | – | – | – | 63.2 | – | 47.6 | – | 47 | – | 30.3 | 25.5 | – | – | –
14 | Cc1nnc2ccnn2c1C | > 100 | > 100 | > 100 | > 100 | > 100 | > 100 | > 100 | > 100 | > 100 | > 100 | > 100 | > 100 | > 100 | > 100 | 17.6 | 34.6 | – | – | – | –
15 | N#CCCC[Si]12OCCN(CCO1)CCO2 | – | > 100 | – | > 100 | – | > 100 | – | – | – | > 100 | – | > 100 | – | > 100 | – | > 100 | > 100 | > 100 | – | –
16 | Cc1ccc(S(=O)(=O)N2CCC2c2ccccc2)cc1 (configuration not stated) | – | > 100 | – | > 100 | – | > 100 | – | – | – | > 100 | – | > 100 | – | – | – | – | > 100 | – | – | –
17 | C[C@@]1(O)CC[C@]2(C)C3CCCC3[C@H]12 (some centres not stated) | – | > 100 | – | > 100 | – | > 100 | – | – | – | > 100 | – | > 100 | – | > 100 | – | > 100 | > 100 | > 100 | – | –
18 | CN1CCN(c2ccc(Nc3ncc(Cl)c(NC[C@@H]4CCCO4)n3)cc2)CC1 | 2.59 | 7.94 | 4.02 | > 100 | 3.69 | > 100 | 0.683 | 26.9 | 0.573 | 6.55 | – | – | 2.07 | > 100 | 1.18 | > 100 | 8.06 | 6.03 | 1.49 | 0.513
19 | Br[Se]c1ccccn1 | – | 30.1 | – | 36 | – | 24.8 | – | 32.5 | – | 42 | – | – | – | 33 | – | 35.1 | 31.2 | 65.8 | – | –
20 | CC(C)[C@@H]1NC(=O)[C@]2(C)CSC(=N2)c2ccnc(c2)CNC(=O)C[C@@H](/C=C/CCS)OC1=O | 0.0842 | 0.516 | 0.128 | > 100 | 0.283 | > 39.4 | 0.708 | > 100 | < 0.0253 | > 100 | 0.128 | > 100 | 2.86 | 15.6 | 0.156 | > 100 | – | > 100 | – | 0.0641
